In US20090155241A1, “Prophylactic/therapeutic agent for cancer” (JAPANESE FOUNDATION FOR CANCER RESEARCH, priority 2005, published 2009):

What was measured:
[1] = test system: p53-mutated cancer cells (NCI-H23, DMS114, HCT-15, KM-12, SF268, U251); assay: Cell growth inhibition, CellTiter 96 AQueous One, p53-mutated cancer cells; format: cell-based, human; conditions: 4 or 8 μM, 48 hours, RPMI-1640; FIG. 3A
Description: (§1) NCI-H23, DMS114, HCT-15, KM-12, SF268 and U251 cells, which are p53-mutated cancer cells, were incubated in RPMI-1640 medium containing 4 or 8 μM Triacsin c for 48 hours. On the other hand, human normal cell lines TIG108, TIG109, ASF4-1, CCD33Co and TIG114 cells were incubated in MEM containing 4 or 8 μM Triacsin c for 48 hours. After completion of the incubation, 20 μl of CellTiter 96AQueous One Solution Cell Proliferation Assay Kit (manufactured by Promega Corp.) was added and reacted for an hour. Absorbance was then measured at 490 nm.
(§2) The results are shown by % based on absorbance in the absence of Triacsin c.

[2] = test system: human normal cell lines TIG108, TIG109, ASF4-1, CCD33Co and TIG114; assay: Cell growth inhibition, CellTiter 96 AQueous One, human normal cell lines; format: cell-based; conditions: 4 or 8 μM, 48 hours, MEM; FIG. 3A
Description: as §1, §2

p53-mutated cancer cells = assay: Caspase activation as index of apoptosis induction (Ac-DEVD-MCA substrate); format: cell-based, human; conditions: 8 μM, 30 hours, RPMI medium; FIG. 3B
Description: (§3) In order to examine if the cell growth inhibitory effect by Triacsin c was induced by apoptosis, the caspase activation was measured as an index of the apoptosis induction using acetyl-Asp-Glu-Val-Asp-(4-methylcoumaryl-7-amide) as a substrate.

ACS = assay: Intracellular ACS activity in cell extract ([14C]-palmitic acid); format: cell-based, human; conditions: 4 μM, 24 hours, FIG. 4B
Description: The ACS activity was assayed by the method of Banis, et al. (Biochem. Biophys. Acta, 348, 210-220, 1974). To the cell extract (100 μl) obtained by homogenization, 1.2 μmol magnesium chloride, 5 μmol ATP, 3 μmol potassium fluoride, 0.1 μmol coenzyme A, 3 μmol 2-mercaptoethanol, 0.03 μmol palmitic acid and 0.1 μCi [^14C]-palmitic acid (150 μl) were added and the mixture was reacted at 37° C. for 5 minutes. After the reaction was terminated by adding 2.25 ml of isopropanol-heptane-1M sulfuric acid (40:10:1), 1.5 ml of heptane and 1 ml of water were added and the upper layer was removed. The lower layer containing [^14C]-palmitoyl CoA produced after the reaction was washed twice with 2 ml of heptane-8 mg of palmitic acid, and the ^14C level was measured using a liquid scintillation counter.
The ACS activities of SF268/mock cells and SF268/ACS5 cells were assayed by the method described in EXAMPLE 4(3).

SF268 cells = assay: Cell growth inhibition in SF268 cells; format: cell-based, human; conditions: about 4 μM (1 to 4 μM), treated for 48 hours; FIG. 4C
Description: as §1
(§4) In addition, the caspase activation as an index of apoptosis was examined.

SF268/ACS5 cells [3] = assay: Cell growth inhibition in ACS5-expressing SF268 cells; format: cell-based, human; conditions: FIG. 4C
Text: To examine if the p53-mutated cancer cell-selective apoptosis by Triacsin c was induced by ACS activity inhibition, cells stably expressing Triacsin c-resistant ACS isozyme ACS5 were established as follows. The retroviral vector pHa-ACS5—FLAG-IRES-DHFR constructed in EXAMPLE 4(1) and empty vector pHa-IRES-DHFR were introduced into mouse fibroblast PA317 using mammalian transfection kit (Stratagene) to give viral stock. The resulting viral stock was further infected into human glioma SF268 cells and selected with 100 ng/ml of methotrexate as a selective agent to give the stably expressing strain SF268/ACS5 and SF268/mock for control. The cell extract from each cell was analyzed by western blot using anti-FLAG-M2 antibody (Sigma) (and anti-tubulin antibody (Sigma) for control).
as §4

SF268/ACS5 cells [4] = assay: Caspase activation in ACS5-expressing SF268 cells; format: cell-based, human; conditions: with expression of ACS5; FIG. 4D
Description: as §3, §4

[5] = test system: Human lung cancer NCI-H23; assay: Growth inhibitory effect in nude mice bearing p53-mutated cancer; format: in vivo, BALB/cAJcl-nu nude mice
Description: In order to examine the p53-mutated cancer growth inhibitory effect by apoptosis induction via Triacsin c-induced ACS activity inhibition in vivo, a test for administering p53-mutated cancer-bearing nude mice was performed. Human lung cancer NCI-H23 was used as the p53-mutated cancer cell line and implanted subcutaneously into BALB/cAJcl-nu nude mice (9 weeks old). On day 0 when the tumor volume reached 50-150 mm^3, 40 μl (30 mg/kg/day) of Triacsin c was administered by intratumoral injection (n=5). Triacsin c was administered for 3 consecutive days on days 0, 1 and 2. For control group, 40 μl of saline was administered by the same dosing schedule (n=5). For evaluation of tumor volume, the length (L) and width (W) of the tumor were measured, and the tumor volume (TV) was calculated as TV=L×W×W/2. Relative tumor volume was determined as the value when a mean value of the tumor volume on day 0 in control group was made 1. Tumor growth was measured for 21 days after drug administration. Statistical significance was determined with a Student t test.

[6] = test system: fatty acid metabolizing enzyme ACS; conditions: Biochem. Biophys. Acta, 921, 595-598, 1987; cited from earlier work
[7] = test system: SF268/ACS5 and SF268/mock cells; assay: Cell viability after anticancer drug treatment, SF268/mock and SF268/ACS5; format: cell-based, human; conditions: 48 hours; etoposide 1, 3 or 10 µg/ml, 5-fluorouracil 30, 100 or 300 µg/ml; FIG. 6A
Description: Changes of anticancer drug sensitivity in cancer cells by expression of ACS5 were examined. After 1, 3 or 10 µg/ml of etoposide or 30, 100 or 300 µg/ml of 5-fluorouracil was added to SF268/ACS5 established in EXAMPLE 4(2), which are cells capable of stably and highly expressing ACS5, and SF268/mock cells for control, incubation was performed in RPMI-1640 medium for 48 hours. After adding 20 μl of CellTiter 96AQueous One Solution Cell Proliferation Assay Kit (manufactured by Promega) and reacting for an hour, the cell viability was determined by measuring absorbance at 490 nm and expressed by % based on the value when no etoposide was added or no 5-fluorouracil was added (FIG. 6A).

SMILES: CCCC=CCC=CC=CC=NN=NO [Triacsin c, 1-Hydroxy-3-undeca-2,4,7-triene-1-ylidenetriaz-1-ene]
- cell growth inhibitory effect [1]: potent cell growth inhibitory effect
- cell growth inhibitory effect [2]: no cell growth inhibitory effect was observed
- caspase activation (p53-mutated cancer cells): strong activation of caspase
- intracellular ACS activity (ACS; SF268/ACS5 cells (ACS5-overexpressed)): any significant reduction of the ACS activity was not observed
- intracellular ACS activity (ACS; SF268/mock cells): markedly reduced
- cell growth (SF268 cells): strongly inhibited the growth
- Triacsin c-induced cell growth inhibitory effect (SF268/ACS5 cells [3]): almost completely cancelled
- caspase activation (SF268/ACS5 cells [4]): strongly counteracted
- tumor volume versus control group ([5]; 30 mg/kg/day intratumoral injection, days 0, 1 and 2, measured for 21 days, p<0.05, FIG. 5): significant tumor regression effect
- weight loss ([5]; cancer-bearing nude mice, 30 mg/kg/day intratumoral, 3 consecutive days): any weight loss was not observed
- inhibition activity against ACS [6]: specific inhibition activity

SMILES: COc1cc([C@@H]2c3cc4c(cc3[C@@H](O[C@@H]3O[C@@H]5CO[C@@H](C)O[C@H]5[C@H](O)[C@H]3O)[C@H]3COC(=O)[C@H]23)OCO4)cc(OC)c1O [etoposide]
- cell viability in SF268/ACS5 as compared to SF268/mock [7]: significantly high cell viability
- growth inhibitory effect (cell viability) [7]: growth inhibitory effect was produced concentration-dependently

SMILES: O=c1[nH]cc(F)c(=O)[nH]1 [5-fluorouracil]
- cell viability in SF268/ACS5 as compared to SF268/mock [7]: significantly high cell viability
- growth inhibitory effect (cell viability) [7]: growth inhibitory effect was produced concentration-dependently
